Measured values as given in ChEMBL document CHEMBL1132903 (Bioorg Med Chem Lett, 2000).
One block for each compound: values may come before it. Where a SMILES comes first, the peptide text is derived from it.

Columns and labels:
[1] = target: Pancreatic elastase (Sus scrofa) (UniProt P08419+P00772); assay: Inhibition constant for uncompetitive inhibition of Suc-AAPA and Pancreatic elastase; format: protein assay
[2] = target: T1, Serine protease 1 (Homo sapiens, UniProt P07477)
[3] = target: T2, Chymotrypsinogen A (Bos taurus, UniProt P00766); assay: Competitive inhibition constant against Chymotrypsinogen using the reporter substrate Suc-AAPA-pNa
[4] = target: T3, Chymotrypsin-like elastase family member 2A (Sus scrofa, UniProt P08419); assay: Peptide was tested for inhibition constant for uncompetitive inhibition using Suc-AAPA and Pancreatic elastase
T3 sequence (P08419 whole entry): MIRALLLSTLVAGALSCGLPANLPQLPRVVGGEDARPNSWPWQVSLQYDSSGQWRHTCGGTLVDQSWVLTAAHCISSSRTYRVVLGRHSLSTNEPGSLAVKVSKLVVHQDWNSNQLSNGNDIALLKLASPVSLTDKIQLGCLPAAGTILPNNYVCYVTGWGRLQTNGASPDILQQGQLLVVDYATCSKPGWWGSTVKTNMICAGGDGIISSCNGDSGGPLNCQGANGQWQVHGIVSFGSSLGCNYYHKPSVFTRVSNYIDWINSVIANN

[5] = target: T4, Neutrophil elastase (Homo sapiens, UniProt P08246); assay: Competitive inhibition constant against Human neutrophil elastase using the reporter substrate MeO-AAPV-pNa
T4 sequence (P08246 whole entry): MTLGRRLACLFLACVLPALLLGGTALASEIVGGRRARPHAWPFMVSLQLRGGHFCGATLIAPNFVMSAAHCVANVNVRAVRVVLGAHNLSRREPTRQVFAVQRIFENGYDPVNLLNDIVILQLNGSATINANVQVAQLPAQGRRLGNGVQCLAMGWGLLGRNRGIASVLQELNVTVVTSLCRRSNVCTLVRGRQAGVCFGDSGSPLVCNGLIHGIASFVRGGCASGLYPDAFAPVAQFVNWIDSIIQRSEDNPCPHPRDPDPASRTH

[6] = target: T1, Serine protease 1; assay: Competitive inhibition constant against trypsin using the reporter substrate Ac-R-pNa
[7] = target: T2, Chymotrypsinogen A; assay: Competitive inhibition constant against Chymotrypsinogen using the reporter substrate Suc-AAPA-pNa; No inhibition
[8] = target: T4, Neutrophil elastase; assay: Competitive inhibition constant against Human neutrophil elastase using the reporter substrate MeO-AAPV-pNa; NI means no inhibition
[9] = target: T5, Chymotrypsin-like elastase family member 2A (Sus scrofa) (UniProt P08419)
T5 sequence (whole entry): T3 sequence (P08419 whole entry)
Description: Peptide was tested for inhibition constant for competitive inhibition using Suc-AAPA-pNa and Pancreatic elastase

T1 sequence (P07477 whole entry): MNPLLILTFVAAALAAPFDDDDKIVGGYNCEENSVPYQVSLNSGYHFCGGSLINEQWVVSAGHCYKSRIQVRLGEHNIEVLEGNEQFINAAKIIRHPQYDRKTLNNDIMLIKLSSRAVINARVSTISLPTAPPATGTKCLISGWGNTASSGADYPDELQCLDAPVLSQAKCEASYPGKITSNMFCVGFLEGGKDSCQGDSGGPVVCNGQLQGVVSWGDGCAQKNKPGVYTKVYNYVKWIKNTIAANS
Chain of Pancreatic elastase (Sus scrofa) (P00772 whole entry, looked up, one chain of several): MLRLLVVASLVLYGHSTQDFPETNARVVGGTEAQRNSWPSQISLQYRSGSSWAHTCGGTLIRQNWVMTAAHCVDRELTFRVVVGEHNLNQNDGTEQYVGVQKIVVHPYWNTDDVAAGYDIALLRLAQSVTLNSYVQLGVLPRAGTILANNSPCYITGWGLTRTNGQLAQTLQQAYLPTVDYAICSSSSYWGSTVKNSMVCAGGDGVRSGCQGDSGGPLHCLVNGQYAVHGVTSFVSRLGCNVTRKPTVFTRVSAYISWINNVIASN

Ki' [1]: 890 µM
Compound: CSCC[C@H](N)C(=O)N[C@@H](Cc1ccccc1)C(=O)N[C@@H](CC(C)C)C(=O)N[C@@H](C)C(=O)O (H-MFLA-OH)

Ki [2]: Not Active
Ki [3]: 2300 µM
Ki [4]: No inhibition
Compound: CC[C@H](C)[C@H](NC(=O)[C@H](C)NC(=O)[C@H](CCC(=O)O)NC(=O)[C@H](CC(C)C)NC(=O)[C@H](Cc1ccccc1)NC(=O)[C@@H](N)CCSC)C(=O)N1CCC[C@H]1C(=O)N[C@@H](CCSC)C(=O)O

Ki' [1]: 1400 µM
Compound: CC(C)C[C@H](NC(=O)[C@@H](N)Cc1ccccc1)C(=O)N[C@@H](CCC(=O)O)C(=O)O (H-Phe-Leu-Glu-OH)

Ki' [1]: 340 µM
Ki [5]: 27 µM
Compound: CC[C@@H](C)[C@H](NC(=O)[C@H](CO)NC(=O)[C@H](CCSC)NC(=O)[C@@H]1CCCN1C(=O)[C@H](NC(=O)[C@@H](C)NC(=O)[C@@H](CCC(=O)O)NC(=O)[C@@H](CC(C)C)NC(=O)[C@@H](Cc1ccccc1)NC(=O)[C@H](N)CCSC)[C@H](C)CC)C(=O)O

Ki [6]: 540 µM
Ki [7]: Not Active
Compound: CC[C@H](C)[C@H](NC(=O)[C@H](C)NC(=O)[C@H](CCC(=O)O)NC(=O)[C@H](CC(C)C)NC(=O)[C@H](Cc1ccccc1)NC(=O)[C@@H](N)CCSC)C(=O)N1CCC[C@H]1C(=O)N[C@@H](CCCCN)C(=O)O

Ki' [1]: 640 µM
Ki [8]: Not Active
Compound: CC[C@@H](C)[C@@H](NC(=O)[C@@H](C)NC(=O)[C@@H](CCC(=O)O)NC(=O)[C@@H](CC(C)C)NC(=O)[C@@H](Cc1ccccc1)NC(=O)[C@H](N)CCSC)C(=O)N1CCC[C@H]1C(=O)N[C@H](CCCCN)C(=O)O

Ki' [1]: 440 µM
Ki [5]: 270 µM
Ki' [9]: No inhibition
Compound: CC[C@@H](C)[C@@H](NC(=O)[C@@H](C)NC(=O)[C@@H](CCC(=O)O)NC(=O)[C@@H](CC(C)C)NC(=O)[C@@H](Cc1ccccc1)NC(=O)[C@H](N)CCSC)C(=O)N1CCC[C@H]1C(=O)N[C@@H](CCSC)C(=O)O

Ki' [1]: 370 µM
Ki [8]: Not Active
Ki [2]: Not Active
Ki [7]: Not Active
Compound: CSCC[C@@H](N)C(=O)N[C@H](Cc1ccccc1)C(=O)N[C@H](CC(C)C)C(=O)N[C@H](CCC(=O)O)C(=O)O

Ki' [1]: 890 µM
Compound: CC[C@@H](C)[C@@H](NC(=O)[C@@H](C)NC(=O)[C@@H](CCC(=O)O)NC(=O)[C@@H](CC(C)C)NC(C)=O)C(=O)N1CCC[C@H]1C(=O)N[C@@H](CCSC)C(=O)O

Ki [3]: 240 µM
Compound: H-MFLEAIPMSIPPE-OH

Ki' [1]: 530 µM
Compound: CC[C@H](C)[C@H](NC(=O)[C@H](C)NC(=O)[C@H](CCC(=O)O)NC(=O)[C@H](CC(C)C)NC(=O)[C@@H](N)Cc1ccccc1)C(=O)N1CCC[C@@H]1C(=O)N[C@H](CCSC)C(=O)O

Ki' [1]: 1200 µM
Ki [5]: 190 µM
Compound: CC[C@@H](C)[C@@H](NC(=O)[C@@H](C)NC(=O)[C@@H](CCC(=O)O)NC(=O)[C@@H](CC(C)C)NC(=O)[C@@H](Cc1ccccc1)NC(=O)[C@H](N)CCSC)C(=O)N1CCC[C@H]1C(=O)N[C@@H](CCSC)C(=O)N[C@@H](CO)C(=O)O

Ki [2]: Not Active
Ki [3]: 3100 µM
Compound: CC[C@H](C)[C@H](NC(=O)[C@H](C)NC(=O)[C@H](CCC(=O)O)NC(=O)[C@H](CC(C)C)NC(=O)[C@H](Cc1ccccc1)NC(=O)[C@@H](N)CCSC)C(=O)N1CCC[C@H]1C(=O)N[C@@H](CCSC)C(=O)N[C@@H](CO)C(=O)O

Ki [2]: Not Active
Ki [3]: 160 µM
Compound: CC[C@H](C)[C@H](NC(=O)[C@H](CO)NC(=O)[C@H](CCSC)NC(=O)[C@@H]1CCCN1C(=O)[C@@H](NC(=O)[C@H](C)NC(=O)[C@H](CCC(=O)O)NC(=O)[C@H](CC(C)C)NC(=O)[C@H](Cc1ccccc1)NC(=O)[C@@H](N)CCSC)[C@@H](C)CC)C(=O)O

Ki' [1]: 220 µM
Compound: CC[C@@H](C)[C@@H](NC(=O)[C@@H](CC)NC(=O)[C@@H](CCC(=O)O)NC(=O)[C@@H](CC(C)C)NC(=O)[C@@H](Cc1ccccc1)NC(=O)[C@H](N)CCSC)C(=O)N1CCC[C@H]1C(=O)O
